Data reported in patent US8207211B2, “Photosensitizers for targeted photodynamic therapy” (The General Hospital Corporation, priority 2005, dated 2012).

What was measured:
[1] = system: E. coli; assay: Photodynamic inactivation (PDI), CFU survival, white light (red light for TBO); assay type: cell-based, Escherichia coli; details: 10 μM; for change of E. coli killing in the presence of serum versus no serum: white light; for PDT activity against E. coli: white light up to 50 J/cm^2
Description: (§1) Staphylococcus aureus (ATCC #35556), Escherichia coli (ATCC #25922), and Pseudomonas aeruginosa (ATCC #BAA-47; PAO1) were cultured in brain-heart infusion (BHI) broth (Difco, BD Diagnosttic Systems, Sparks, Md.) at 37° C. in aerobic conditions in a shaker at 150 rpm. Candida albicans (ATCC #18804) is grown in YM broth (Difco). Exponential cultures obtained by reculturing stationary overnight precultures were used for experiments.
(§2) E. coli, P. aeruginosa, and S. aureus are grown in fresh medium for approximately 1 hr to a density of about 10^8 cells/ml; the OD values at 650 nm are 0.6, 0.8, and 0.8, respectively. C. albicans is grown for approximately 4 hr to an approximate density of 10^8 cells/ml, corresponding to an OD of 6 at 650 nm (measured at 10-fold dilution). Cells were used for experiments in the mid-log growth phase.
(§3) A noncoherent lamp with filtered liquid light guides, e.g., a LumaCare™ LC122 lamp (MBG Technologies, Inc., Newport Beach, Calif.) was used to provide illumination of PS. More specifically, for illumination of fullerenes, a broad-band white light band pass filter (400-700 nm) was used, whereas for TBO, a band pass filter at 620-650 nm was used. The lamp was adjusted to give a uniform spot of about 4 cm diameter with an irradiance of 200 mW/cm^2, as measured with a power meter, e.g., a model DMM 199 meter with 201 Standard head (Coherent, Santa Clara, Calif.).
(§4) Typically, derivatized fullerenes prepared as described above are dissolved in DMSO to provide stock solutions having final concentrations of about 5 mM. […] All stock solutions were stored in the dark at room temperature.
(§5) In some experiments, for example in studies described in Examples below, suspensions of S. aureus cells (10^8 per ml) were incubated with derivatized fullerenes such as NI-1-3 and CI1-3 at a concentration of 100 μM in PBS at room temperature for 10 min. In other experiments, the bacterial suspension was centrifuged (4000×g for 10 min) after incubation and resuspended in fresh PBS before illumination; the latter procedure was referred to herein as a “wash.” E. coli, P. aeruginosa, and C. albicans were used at concentrations of about 10^8 cells per ml.
(§6) Illumination was carried out from above on microbial cell suspensions in wells of a 24-well plate. Aliquots were removed at times corresponding to the delivery of calculated fluences of light, and were serially diluted in PBS and streaked on square BHI or YM agar plates according to the method of Jett et al. (Jett, B. D., Hatter, K. L., Huycke, M. M., and Gilmore, M. S. (1997). Simplified agar plate method for quantifying viable bacteria. Biotechniques 23, 648-650). Survival fractions were calculated with reference to cells incubated in PBS alone. Values on killing curves at 0 J/cm^2 represent the dark toxicity of the fullerenes or other PS tested. Control cells were treated with light and no PS and also analyzed for viability.

[2] = system: L929 murine fibroblast line; assay: Mammalian cell toxicity, MTT viability assay after illumination; assay type: cell-based, mouse; details: 10 μM, 10 min; for toxicity to L929 mammalian cells at fluences used for PDI of pathogens: white light up to 50 J/cm^2
Source text: Experiments to test the effect of functionalized fullerenes on mammalian cells can be performed in a suitable mammalian cell line. One such cell line is the L929 murine fibroblast line (ATCC #CCL1), a spontaneously transformed immortalized cell line established from the normal subcutaneous areolar and adipose tissue of a male C3H/An mouse (Earle, W. R., Schilling, E. L., Stark, T. H., Straus, N. P., Brown, M. F., and Shelton, E. (1943). Production of malignancy in vitro. IV. The mouse fibroblast cultures and changes seen in the living cells. J. Natl. Cancer Inst. 4, 165-212). In a suitable assay, these cells were cultured in Dulbecco's modified Eagle's medium (Sigma) at 37° C. in a humidified atmosphere containing 5% CO2. The medium is preferably modified by using 4 mM L-glutamine (containing 1.5 g/l sodium bicarbonate and 4.5 g/l glucose), 10% fetal bovine serum (FBS), 100 U/ml penicillin, and […] streptomycin. Cells were plated in 96-well cell culture plates, at a density of about 300 cells/well, and are allowed to attach for 24 hr.
Fullerenes and other PS, e.g., TBO, were added at a concentration of about 10 μM in 200 μl complete medium per well. After 10 min, fresh medium is added, and the cultures were illuminated with white light (for fullerenes) or with red light (for TBO). At the completion of the illumination period, cells were returned to the incubator for 24 hr. Cell viability can be determined, for example, by using the MTT-microculture tetrazolium assay, a method of assessing cellular response to PDT (Merlin, J. L., Azzi, S., Lignon, D., Ramacci, C., Zeghari, N., and Guillemin, F. (1992). MTT assays allow quick and reliable measurement of the response of human tumour cells to photodynamic therapy. Eur. J. Cancer 28A, 1452-1458. This assay involves the reduction of a colorless substrate, i.e., 3-[4,5-Dimethylthiazol-2-yl]-diphenyltetrazolium bromide (Sigma, St. Louis, […].) to an insoluble dark-blue formazan product which is formed in proportion to the amount of succinate dehydrogenase activity in the mitochondria of living cells. After incubation with MTT for periods ranging from 4 to 8 hr, the medium was aspirated from each well, and […] DMSO is added. The absorbance at 570 nm was read by a microplate reader, e.g., a Spectra Max™ 340 PC (Molecular Devices, Sunnyvale, Calif.). The fraction of cells surviving was calculated by dividing the mean absorbances of formazan produced from PDT-treated cells by the mean absorbances from dark controls incubated with PS and kept at room temperature for periods of time equal to the irradiation times.

[3] = system: S. aureus; assay: Photodynamic inactivation (PDI), CFU survival, white light (red light for TBO); assay type: cell-based, Staphylococcus aureus; details: for PDT activity against S. aureus: 10 min, white light up to 50 J/cm^2
[4] = system: P. aeruginosa; assay: as above; assay type: cell-based, Pseudomonas aeruginosa; details: 10 μM; for PDT activity against P. aeruginosa: white light up to 50 J/cm^2
Description: as §1, §2, §3, §4, §5, §6

[5] = Octanol-water distribution coefficient; assay type: physicochemical; details: 1-octanol/DI water, absorbance at 330 nm
Description: Each compound was dissolved in a minimum amount of DMSO: CI1 (0.9 mg in 200 μl), CI2 (5.3 mg in 200 μl), CI3 (5.4 mg in 200 μl). Ten ml of DI water and 10 ml of 1-octanol were added in each compound and vigorously shaken for 2 min. and the vials of the compounds were settled down overnight. The phases were separated and UV-spectra of each phase were analyzed. Distribution coefficient of each compound was determined using absorbance of aqueous phases and organic phases at 330 nm.

[6] = system: C. albicans; assay: Photodynamic inactivation (PDI), CFU survival, white light (red light for TBO); assay type: cell-based, Candida albicans; details: 10 μM; for PDT activity against C. albicans: white light up to 50 J/cm^2
Description: as §1, §2, §3, §4, §5, §6

[7] = Solubility in DMSO stock solution; assay type: physicochemical; details: lower stock concentration used than for the other fullerenes
Description: as §4
Six fullerene derivatives (NI1-3 and CI1-3) were evaluated. […] Concentration of fullerene derivatives used in the experiments varied between 1 and 100 μM.

[8] = system: S. aureus; assay: Photodynamic inactivation (PDI), CFU survival, white light (red light for TBO); assay type: cell-based, Staphylococcus aureus
Description: as §1, §2
A noncoherent lamp with filtered liquid light guides, e.g., a LumaCare™ LC122 lamp (MBG Technologies, Inc., Newport Beach, Calif.) was used to provide illumination of PS. […] The lamp was adjusted to give a uniform spot of about 4 cm diameter with an irradiance of 200 mW/cm^2, as measured with a power meter, e.g., a model DMM 199 meter with 201 Standard head (Coherent, Santa Clara, Calif.). […]
Illumination was carried out from above on microbial cell suspensions in wells of a 24-well plate. […] Survival fractions were calculated with reference to cells incubated in PBS alone. […]

[9] = 10 min incubation, up to 16 J/cm2 of red light
[10] = same fluence as for the fullerenes, presence or absence of serum

C[N+]1(C)Cc2c(c3c4ccc5c6c7c(c8c9ccc%10c%11c%12c%13c(c2c2c3c3c4c5c4c6c8c5c9c%10c%12c6c(c%132)c3c4c56)C2C[N+](C)(C)CC%112)C[N+](C)(C)C7)C1 (stereo not drawn) [CI3]
change of E. coli killing in the presence of serum versus no serum ([1]; 10 min, 10% FBS, with a wash): about 1 log
PDT activity against E. coli ([1]; 10 min): effectively killed
killing of E. coli ([1]; with a wash, 2 J/cm^2 white light): 6 logs
toxicity to L929 mammalian cells at fluences used for PDI of pathogens [2]: not killed
PDT activity against S. aureus ([3]; 1 μM): effectively killed
light sufficient to kill 4-5 logs of S. aureus ([3]; 1 μM, with a wash, white light): 1 J/cm^2
PDT activity against P. aeruginosa ([4]; 10 min): effectively killed
Kow (octanol-water partition constant) [5]: 0.37
LogKow [5]: −0.43
PDT activity against C. albicans ([6]; 10 min): effectively killed
relative effectiveness in killing C. albicans ([6]; 10 min, with a wash, white light): slightly more effective than CI2

C[N+]1(C)CC2c3c4ccc5c6ccc7c8ccc9c%10ccc%11c(c%12c3c3c4c5c4c6c7c5c8c9c6c%10c%11c%12c7c3c4c5c67)C2C1 (stereo not drawn) [CI1]
change of E. coli killing in the presence of serum versus no serum ([1]; 10 min, 10% FBS, with a wash): unchanged
PDT activity against E. coli ([1]; 10 min): effectively killed
killing of E. coli ([1]; with a wash, 8 J/cm^2 white light): 3 logs
toxicity to L929 mammalian cells at fluences used for PDI of pathogens [2]: not killed
PDT activity against S. aureus ([3]; 1 μM): effectively killed
dark toxicity to S. aureus ([3]; 10 and 1 μM, with a wash): nonexistent
solubility in DMSO (stock solution) [7]: poorly soluble
PDT activity against P. aeruginosa ([4]; 10 min): effectively killed
killing of P. aeruginosa ([4]; 10 min, with a wash, white light up to 16 J/cm^2): 2 logs
Kow (octanol-water partition constant) [5]: 140.80
LogKow [5]: 2.15
PDT activity against C. albicans ([6]; 10 min): effectively killed
dark toxicity to S. aureus (killing) ([8]; 100 μM, 10 min, 0 J/cm^2): 99%
PDI of S. aureus ([8]; 100, 50, 25, 10 and 1 μM, with a wash, white light 4-8 J/cm2): fluence-dependent loss of viability

Cc1cc2nc3ccc(N(C)C)cc3[s+]c2cc1N.[Cl-] [TBO, toluidine blue O, reference compound]
PDI of E. coli in the presence of serum ([1]; 10 min, 10% FBS, with a wash, red light): almost ineffective
killing of E. coli [1, 9]: ≤ 90%
dark toxicity toward L929 cells (killing) ([2]; 10% FBS, with a wash): little dark toxicity
fluence at which the limit of the viability assay was reached (L929) ([2]; 10% FBS, with a wash, red light): 80 J/cm^2
additional phototoxicity toward L929 cells ([2]; 10% FBS, with a wash, white or red light up to 120 J/cm^2): pronounced light-dependent toxicity
killing of S. aureus ([3]; 1 μM, 10 min incubation, up to 16 J/cm2 of red light): ≤ 90%
killing of S. aureus ([3]; 1 μM, same fluence as for the fullerenes, presence or absence of serum): less than 1 log
killing of P. aeruginosa [4, 9]: ≤ 90%
killing of P. aeruginosa [4, 10]: less than 1 log
killing of C. albicans [6, 9]: ≤ 90%
killing of C. albicans [6, 10]: less than 1 log
